Source: patent EP2204398A1, “CA[…] DERIVATIVE AND USES OF THE SAME” (NanoCarrier Co., Ltd., priority 2008, dated 2009)

Tests used:
[1] = Test for blood kinetics in rat (CPT concentration in blood plasma by HPLC); format: in vivo, male Wister rat; settings: tail vein, camptothecin in DMSO, administered in the same manner, n=1
Description: In a sample vial, 50 mg of the complex obtained in Example 1 which was weighed precisely was placed, and 1 mL of purified water was added thereto, followed by suspending the polymer. The resulting suspension was stirred for one day and night, and sonicated using Biodisruptor (Nihonseiki Kaisha Ltd., High Power Unit) with ice cooling for 10 minutes, followed by filtration through a 0.22 µm filter (Millipore, MILLEX (registered trademark) GP PES) and recovery of the resulting filtrate. […]
To 30 µL of the collected rat blood plasma, 100 µL of acetonitrile and 20 µL of 10 mM HCl were sequentially added, and the resulting mixture was stirred. […] The filtrate was filled in an HPLC sample vial, and the concentration of free CPT in the blood plasma was determined.
The HPLC conditions were as followed. Unless otherwise specified, the HPLC analysis of CPT was carried out under the same conditions. • System: Waters Alliance System • Column: Tosoh TSK-gel ODS-80TM (Φ4.6 × 150 mm) (40°C) • Mobile phase: 25 mM ammonium formate buffer (pH 3.0)/acetonitrile=70/30 • Flow rate: 1 mL/min. • Detection: fluorescence (Ex: 370 nm, Em: 420 nm) Injection volume: 20 µL

[2] = test system: Human Prostate Cancer PC-3 Cells; assay: Test for pharmacological effect using human prostate cancer PC-3 cells - 1 (tumor volume); format: in vivo, male nude mice; settings: CPT DMSO solution 7 mg/kg, tail vein, 3 times at intervals of 4 days, n=7
Description: (§1) PC-3 cells (purchased from ATCC via Summit Pharmaceuticals International Corporation; which provision is also applied hereinafter) were cultured using RPMI1640 + 10% FBS medium under 5% CO2 at 37°C to allow their growth to attain the cell number required for transplantation. The cells were suspended in physiological saline and subcutaneously inoculated to the back of male nude mice [Blab nu/nu, 8 weeks old, Charles River Laboratories Japan] such that the dose of 3 × 10^6 cells/100 µL per mouse was attained. Thereafter, the nude mice were kept for 7 days, and when the tumor volume reached 83.3 t 6.2 mm^3 (average ± SE, wherein SE indicates standard error; which provision is also applied hereinafter), administration of drugs were started. A total of 3 times of administration through the tail vein at intervals of 4 days were scheduled, and changes in the tumor volume and body weight with time were measured for 3 groups (n=7), that is, (1) control (untreated); (2) the CPT DMSO solution 7 mg/kg; and (3) PEG-pAsp-CPT 3 mg/kg (the dose is based on the amount of camptothecin (mg/kg/injection)). The major diameter (a mm) and the minor diameter (b mm) of each tumor were measured using an electronic caliper (Mitutoyo Corporation), and the tumor volume was calculated according to the following equation.
(§2) Tumor volume (mm^3) = a × b^2 /2 [formula] […]

[3] = Changes in body weight in PC-3 tumor-bearing animals, test 1; format: in vivo, male nude mice; settings: CPT DMSO solution 7 mg/kg, tail vein, 3 times at intervals of 4 days, n=7
Description: as §1, §2

CC[C@@]1(O)C(=O)OCc2c1cc1n(c2=O)Cc2cc3ccccc3nc2-1 [CPT solution, camptothecin]
blood concentration [1]: decreased rapidly
tumor growth inhibition effect in comparison with the control group [2]: hardly observed
body weight decrease at maximum [3]: ≥ 10%
